From US5874412A, “Bis-anthracyclines with high activity against doxorubicin resistant tumors” (priority 1997, dated 1999)
Values joined by “and” are separate entries in the source; they are usually repeats but may differ in a detail not shown here. Equal values may be shown once. “Also recorded” adds a separate entry of the source. Where a name gives a salt, the structure may show the parent alone. Read-outs that look alike come from different tables or passages of the source.

Columns and labels:
MCF-7 cells = assay: MTT cytotoxicity assay, sensitive MCF-7 cells; type: cell-based, human; conditions: for IC50: Homo sapiens, MCF7, MTT, 72 h, read-out: ID50 MCF-7
KB-V-1 cells [1] = system: KB-V-1 cells
MCF-7/VP-16 cells [2] = conditions: for RI (resistance index) MCF-7/VP16 / MCF-7: human, mcf-7/vp-16 / mcf-7 cells, 4320 min
KB-V-1 cells [3] = assay: cells; conditions: Homo sapiens, KB-V1, read-out: ID50 KB-V-1
MCF-7/VP-16 cells [4] = assay: cells; conditions: Homo sapiens, MCF7, 72 h, read-out: ID50 MCF-7/VP16
DNA [5] = conditions: literature; cited from earlier work
[6] = Young et al., 1985; cited from earlier work
KB-3-1 cells = assay: MTT cytotoxicity assay, sensitive KB-3-1 cells; conditions: Homo sapiens, KB 3-1, read-out: ID50 KB-3-1
DNA [7] = assay: Viscosity studies (binding mode, relative viscosity of DNA); conditions: for binding mode from viscosity: in words, slope compared with daunorubicin; for slope of cubed root of the relative viscosity vs bound drug per DNA base pair: linear least squares fits, FIG. 20
From the text: FIG. 20. Viscosity studies of WP631-DNA interaction. The cubed root of the relative viscosity (.eta./.eta.0) is shown as a function of the ratio of bound drug per DNA base pair: solid circles, ethidium bromide; open diamonds, daunorubicin; solid diamonds, WP63 1.
The bisanthracyclines may be tested as effective intercalating agents using viscosity assays as described by Suh and Chaires (1995). Such assays are well known to those of skill in the art. In theory, for monointercalation,plots of the cubed root of the relative viscosity ((.eta./.eta.0)^1/3) versus the binding ratio (bound drug/DNA bp) ought to have a slope of 1.0. For bisintercalators, the slope is expected to be twice that observed for monointercalators, an expectation that has been verified for a variety of bisintercalating compounds (Wakelin, 1986). Thus in order to test the effectiveness of a candidate bisintercalator the viscosity of a DNA solution is measured according to assays well known to those of skill in the art (Suh and Chaires, 1995) and compared to the viscosity of a known intercalator such as daunorubicin. If the candidate substance is higher than that of the control monointercalator then the candidate substance is likely to be an effective bisintercalator.
Viscosity Studies. Relative viscosity studies were conducted exactly as described previously (Suh and Chaires, 1995). Data were cast into a plot of (.eta./.eta.0)^1/3 versus ratio of bound drug per DNA base pair, in accord with the theory of Cohen and Eisenberg (1969). Ethidium bromide and daunorubicin were run as controls for these experiments.
WP631 Bisintercalates into DNA. In the absence of high-resolution structural data, hydrodynamic studies, especially viscosity, provide the most reliable means of inferring the binding mode of agents that interact with DNA (Suh and Chaires, 1995). […] The theory of Cohen and Eisenberg (1969) predicts that, for monointercalation,plots of the cubed root of the relative viscosity ((.eta./.eta.0)^1/3) versus the binding ratio (bound drug/DNA bp) ought to have a slope of 1.0.
For bisintercalators, the slope is expected to be twice that observed for monointercalators, an expectation that has been verified for a variety of bisintercalating compounds (Wakelin, 1986). […] The model was constructed using Hyper-Chem software (v. 4.5, Hypercube, Inc.) by using the coordinates of the high-resolution structure reported by Wang et al. (1987) for a 2:1 daunorubicin-DNA complex. The sequence of the hexanucleotide in that study was d(G.CTAG.C)3, where the two equivalent intercalation sites are indicated.

herring sperm DNA [8] = assay: UV melting studies of DNA with drug; binding constant from Tm shift; conditions: for Kd: BPE buffer
herring sperm DNA [9] = type: binding
topoisomerase II = conditions: Hsiang et al., 1989; cited from earlier work
herring sperm DNA [10] = conditions: cited from earlier work

Compound	IC50 (MCF-7 cells) [µM]	cytotoxicity in MDR KB-V1 cells, in words (KB-V-1 cells [1])	RI (resistance index) MCF-7/VP16 / MCF-7 (MCF-7/VP-16 cells [2])	IC50 (KB-V-1 cells [3]) [µM]	IC50 (MCF-7/VP-16 cells [4]) [µM]	preferred DNA binding sites (DNA [5])	IC50 (KB-3-1 cells) [µM]	slope of cubed root of the relative viscosity vs bound drug per DNA base pair (DNA [7])	potency in MCF-7 cells compared with DOX, in words (MCF-7 cells)	binding mode from viscosity (DNA [7])	also measured
COc1cccc2c1C(=O)c1c(O)c3c(c(O)c1C2=O)C[C@@](O)(C(=O)CO)C[C@@H]3O[C@H]1C[C@H](N)[C@H](O)[C@H](C)O1 [DOX, doxorubicin]	0.9 ± 0.47	inactive	17	299	14.9 ± 0.89	binds preferentially to CGA or CGT	3.7 ± 1.3	–	–	–	RI (resistance index) KB-V-1 / KB-3-1 (KB-V-1 cells [1]; human, kb-v-1 / kb-3-1 cells): 80.8; DOX resistance index relative to that of WP631 (MCF-7/VP-16 cells [2]): 34 fold; adverse systemic effects [6]: acute myelosuppression, cumulative cardiotoxicity, and gastrointestinal toxicity
COc1cccc2c1C(=O)c1c(O)c3c(c(O)c1C2=O)C[C@@](O)(C(C)=O)C[C@@H]3O[C@H]1C[C@H](NCc2ccc(CN[C@H]3C[C@H](O[C@H]4C[C@](O)(C(C)=O)Cc5c(O)c6c(c(O)c54)C(=O)c4c(OC)cccc4C6=O)O[C@@H](C)[C@H]3O)cc2)[C@H](O)[C@H](C)O1 [WP631, α,α'-Bis-[3'-N-(daunorubicin)]-p-xylene hydrochloride]	4.83 ± 2.5	–	0.5	–	2.5 ± 3.4	–	–	1.58±0.08	less potent than DOX	–	binding mode from viscosity (DNA [7]; hydrochloride): binds to DNA by bisintercalation; also recorded: nearly double that observed for daunorubicin; Tm of herring sperm DNA in presence of drug (herring sperm DNA [8]; 10 μM WP631, BPE buffer (16 mM total Na+), DNA alone 67.2° C.): 93.5 °C; Kd (herring sperm DNA [8]; at 20° C., ΔHb assumed constant with temperature, read-out: binding constant at 20° C. (van't Hoff) (converted)): 0.0037 nM; Kd (herring sperm DNA [8]; at 93.5° C., assuming n=6 bp, read-out: binding constant K at Tm (converted)): 114 nM; expected binding constant (square of monomer constant) (herring sperm DNA [8]; expected for bisintercalator, not measured): 10^14 M^-1; DNA affinity compared with polyamides, in words (herring sperm DNA [8]; vs pyrrole-imidazole polyamides (Trauger, 1996)): surpasses that of the polyamides; binding entropy ΔS (herring sperm DNA [9]): -51 cal mol^-1 K^-1; binding free energy ΔG^0 (herring sperm DNA [9]): -15.3 kcal/mol; entropic contribution TΔS (herring sperm DNA [9]): -14.9 kcal/mol; enthalpy of melting of DNA-WP631 complex ΔH2 (herring sperm DNA [9]; DSC, BPE buffer, saturating amounts of WP631): 11.4 ± 1.0 kcal/mol; binding enthalpy ΔHb (herring sperm DNA [9]; hydrochloride): -30.2 ± 2.6 kcal/mol and -30.2 kcal/mol; cytotoxicity in MCF-7/VP-16 cells compared with DOX, in words (MCF-7/VP-16 cells [2]): dramatic increase in cytotoxicity
COc1cccc2c1C(=O)c1c(O)c3c(c(O)c1C2=O)C[C@@](O)(C(C)=O)C[C@@H]3O[C@H]1C[C@H](O)[C@H](NCc2ccc(CN[C@@H]3[C@H](C)O[C@@H](O[C@H]4C[C@](O)(C(C)=O)Cc5c(O)c6c(c(O)c54)C(=O)c4c(OC)cccc4C6=O)C[C@@H]3O)cc2)[C@H](C)O1 [WP652, α,α'-Bis-4'-N-(4'-amino-3'-deamino-4'-deoxy-3'-hydroxydaunorubicin)-p-xylene hydrochloride]	3.9 ± 3.3	unusually active against the MDR cells	–	7.1 ± 1.2	–	–	4.8 ± 0.5	–	less potent than DOX	–	–
CN(C)CCN1C(=O)c2cccc3cc(N)cc(c23)C1=O [amonafide]	–	–	–	–	–	–	–	–	–	–	inhibition of topoisomerase II (topoisomerase II): inhibit topoisomerase II
COc1cccc2c1C(=O)c1c(O)c3c(c(O)c1C2=O)C[C@@](O)(C(C)=O)C[C@@H]3O[C@H]1C[C@H](N)[C@H](O)[C@H](C)O1 [daunorubicin]	–	–	–	–	–	triplet sequences 5'-A/TCG and 5'-A/TGC are preferred binding sites	–	0.89±0.04	–	viscosity changes in excellent agreement with the theory	Kd (herring sperm DNA [10]; BPE buffer, at 20° C., read-out: binding constant of daunorubicin (converted)): 0.1 µM and 0.0625 µM; binding enthalpy ΔH (herring sperm DNA [10]; comparable ionic conditions): -10.8 kcal/mol; binding entropy ΔS (herring sperm DNA [10]; comparable ionic conditions): -3 cal mol^-1 K^-1; binding free energy ΔG^0 (herring sperm DNA [10]; comparable ionic conditions): -9.9 kcal/mol
CC[n+]1c(-c2ccccc2)c2cc(N)ccc2c2ccc(N)cc21 [ethidium bromide, Ethidium bromide]	–	–	–	–	–	–	–	0.84±0.02	–	viscosity changes in excellent agreement with the theory	–
